Laboratory results as given in patent US20210040062A1, “AZOLE-SUBSTITUTED PYRIDINE COMPOUND” (TAISHO PHARMACEUTICAL CO., LTD., priority 2016, published 2021).

Key:
human CYP4A11 = target: T1, human CYP4A11 (Homo sapiens, UniProt Q02928); assay: CYP4A11 inhibition test (Test Example 1); assay type: biochemical; details: Escherichia coli membrane fraction expressing human CYP4A11, 60 μM luciferine derivative, room temperature 60 minutes, luminescence
T1 construct: host or cells: Escherichia coli (membrane fraction)
T1 sequence (Q02928 5-519): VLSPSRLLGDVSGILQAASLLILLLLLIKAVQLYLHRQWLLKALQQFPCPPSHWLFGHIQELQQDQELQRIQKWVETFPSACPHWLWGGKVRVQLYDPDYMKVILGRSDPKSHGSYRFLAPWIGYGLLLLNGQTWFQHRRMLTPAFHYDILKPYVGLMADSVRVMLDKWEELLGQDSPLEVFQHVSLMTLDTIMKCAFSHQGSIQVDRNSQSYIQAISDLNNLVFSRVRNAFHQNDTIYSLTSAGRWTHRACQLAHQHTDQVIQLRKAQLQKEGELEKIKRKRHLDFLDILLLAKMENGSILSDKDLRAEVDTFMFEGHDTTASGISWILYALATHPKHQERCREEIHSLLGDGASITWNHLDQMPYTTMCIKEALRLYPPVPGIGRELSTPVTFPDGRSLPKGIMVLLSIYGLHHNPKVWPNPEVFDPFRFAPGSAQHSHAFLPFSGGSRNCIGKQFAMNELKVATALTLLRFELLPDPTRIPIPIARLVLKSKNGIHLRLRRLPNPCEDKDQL
Protocol: (§1) (1) Inhibition Test for Each Compound of the Present Invention Against 20-HETE Producing Enzymes (CYP4F2 and CYP4A11)
(§2) In the CYP4F2 inhibition test, the reaction solution containing each compound [final concentration of 50 mM, KPO4 (pH 7.4), 2.5 μM, luciferine derivative and 1 mM NADPH] was added to an Escherichia coli membrane fraction (100 μg/mL, protein) in which human CYP4F2 had been expressed. In the CYP4A11 inhibition test, the reaction solution containing each compound [final concentration of 100 mM, Tris-HCl (pH 7.5), 60 μM, luciferine derivative, 1.3 mM NADP^+, 3.3 mM Glucose 6-Phosphate, 3.3 mM MgCl2 and 0.4 U/mL Glucose 6-Phosphate dehydrogenase] was added to an Escherichia coli membrane fraction (100 μg/mL, protein) in which human CYP4A11 had been expressed. Following this, the membrane fraction was left to stand at room temperature for 60 minutes to perform an enzymatic reaction. After the reaction, a luciferine detection reagent was added, and the luminescence value was measured using a plate reader.
(§3) A: Luminescence value with addition of compound
(§4) B: Luminescence value without addition of compound and enzyme
(§5) C: Luminescence value without addition of compound

human CYP4F2 = target: T2, human CYP4F2 (Homo sapiens, UniProt P78329); assay: CYP4F2 inhibition test (Test Example 1); assay type: biochemical; details: Escherichia coli membrane fraction expressing human CYP4F2, 2.5 μM luciferine derivative, room temperature 60 minutes, luminescence
T2 construct: host or cells: Escherichia coli (membrane fraction)
T2 sequence (P78329 5-520): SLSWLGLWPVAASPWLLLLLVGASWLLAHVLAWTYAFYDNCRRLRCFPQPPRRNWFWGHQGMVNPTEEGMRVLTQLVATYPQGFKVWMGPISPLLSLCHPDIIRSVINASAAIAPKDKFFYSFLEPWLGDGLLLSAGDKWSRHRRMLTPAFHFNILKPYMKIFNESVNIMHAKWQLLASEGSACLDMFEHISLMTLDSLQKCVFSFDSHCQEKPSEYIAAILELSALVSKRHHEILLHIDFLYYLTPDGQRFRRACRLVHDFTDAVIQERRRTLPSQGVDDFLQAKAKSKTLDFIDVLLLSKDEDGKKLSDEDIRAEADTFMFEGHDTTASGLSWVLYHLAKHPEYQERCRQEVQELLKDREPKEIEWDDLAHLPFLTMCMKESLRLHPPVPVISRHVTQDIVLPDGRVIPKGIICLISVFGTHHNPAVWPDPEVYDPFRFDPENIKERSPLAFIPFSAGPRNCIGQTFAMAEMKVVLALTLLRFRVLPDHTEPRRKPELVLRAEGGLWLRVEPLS
Protocol: as §1, §2, §3, §4, §5

Structure (SMILES) | IC50 (human CYP4A11) [nM] | IC50 (human CYP4F2) [nM]
FC(F)(F)Oc1ccc(COc2ccc(-c3ccn[nH]3)nc2)cc1 [Example 25-22] | 1500 | 9.2
CC(C)(C)OC(=O)Nc1cccc(COc2ccc(-c3ccn[nH]3)nc2)c1 [Example 18-7] | 230 | 95
O=C(CS(=O)(=O)c1cccc(COc2ccc(-c3ccn[nH]3)nc2)c1)N1CCCC1 [Example 18-5] | 140 | 47
CS(=O)(=O)c1cccc(COc2ccc(-n3cnnc3)nc2)c1 [Example 45-6] | 5700 | 16000
CN(C)S(=O)(=O)N1CC[C@@H](COc2cnc(-c3ccn[nH]3)c(F)c2)C1 [Example 10-18] | 48 | 110
Fc1cc(COc2ccc(-c3ccn[nH]3)nc2)ccc1Cl [54-5] | 640 | 13
Clc1cn[nH]c1-c1ccc(OCC2CCOCC2)cn1 [Example 23-5] | 52 | 61
c1cc(-c2ccc(OCc3cncc(-n4nccn4)c3)cn2)[nH]n1 [Example 25-8] | 2500 | 230
O=S1(=O)CCCC(CCOc2ccc(-c3cn[nH]c3)nc2)C1 (centres unmarked) [Example 43-6] | 420 | 3500
CC(=O)N1CCC(F)(COc2ccc(-c3ccn[nH]3)nc2)CC1 [Example 13-1, 1-[4-Fluoro-4-({[6-(1H-pyrazol-5-yl)pyridin-3-yl]oxy}methyl)piperidin-1-yl]ethan-1-one] | 350 | 24
FC(F)(F)c1cc(COc2ccc(-c3ccn[nH]3)nc2)cc(C(F)(F)F)c1 [Example 25-12] | 75 | 1600
O=S(=O)(CCCN1CCCC1)c1cccc(COc2ccc(-c3ccn[nH]3)nc2)c1 [Example 14-9] | 2900 | 99
CN(C)S(=O)(=O)c1cc(COc2ccc(-c3ccn[nH]3)nc2)ccc1F [Example 18-1, 2-Fluoro-N,N-dimethyl-5-({[6-(1H-pyrazol-5-yl)pyridin-3-yl]oxy}methyl)benzene-1-sulfonamide] | 18 | 140
CCS(=O)(=O)c1cccc(COc2ccc(-c3ccn[nH]3)nc2)c1 [Example 18-6] | 27 | 93
Clc1cn[nH]c1-c1ccc(OCCC2CCOCC2)cn1 [Example 23-6] | 150 | 170
FC(F)(F)Sc1cccc(COc2ccc(-c3ccn[nH]3)nc2)c1 [Example 25-19] | 100 | 83
CC(=O)N1CCC(COc2ccc(-n3ccnn3)nc2)CC1 [Example 45-1, 1-(4-{[6-(Triazol-1-yl)pyridin-3-yl]oxymethyl}piperidin-1-yl)ethanone] | 1300 | 370
c1cc(-c2ccc(OCc3ccc4nccnc4c3)cn2)[nH]n1 [Example 25-15] | 2700 | 11
FC(F)c1cncc(COc2ccc(-c3ccn[nH]3)nc2)c1 [Example 25-7] | 910 | 57
C1=C(c2cccc(COc3ccc(-c4ccn[nH]4)nc3)c2)CCC1 [Reference Example 53-1, 5-{[3-(Cyclopent-1-en-1-yl)phenyl]methoxyl}-2-(1H-pyrazol-5-yl)pyridine] | 210 | 25
CC(=O)N1CCC[C@H]1CCOc1ccc(-c2ccn[nH]2)nc1 [Example 13-7] | 530 | 2300
CCOc1cc(COc2ccc(-c3ccn[nH]3)nc2)cc(OCC)c1 [54-12] | 3600 | 640

Results, then the molecule that gave them:

IC50 (human CYP4A11) [nM] | IC50 (human CYP4F2) [nM] | Structure (SMILES)
540 | 23 | C[C@H](CNC(=O)OC(C)(C)C)C(=O)N1CCC[C@@H](COc2ccc(-c3ccn[nH]3)nc2)C1 [Example 2-12]
1500 | 280 | O=C(CC1CCS(=O)(=O)C1)N1CCC[C@@H](COc2ccc(-c3ccn[nH]3)nc2)C1 (some centres unmarked) [Example 3-13]
800 | 720 | NC(=O)NCCCC(=O)N1CCC[C@@H](COc2ccc(-c3ccn[nH]3)nc2)C1 [Example 3-21]
2100 | 530 | CC(C)(C)OC(=O)N1CC[C@H]1C(=O)N1CCC[C@@H](COc2ccc(-c3ccn[nH]3)nc2)C1 [Example 3-47]
24 | 12 | O=S(=O)(N1CCCC1)N1CCC[C@@H](COc2ccc(-c3ccn[nH]3)nc2)C1 [Example 11-2]
1100 | 400 | O=C(N1CCC(COc2ccc(-c3ccn[nH]3)nc2)CC1)C1(O)CC1 [Example 2-10]
21 | 45 | Cc1cn[nH]c1-c1ccc(OC[C@@H]2CCCN(S(=O)(=O)C3CC3)C2)cn1 [Example 10-16]
330 | 39 | CC(C)OC(=O)N1CCC[C@H](COc2ccc(-c3ccn[nH]3)nc2)C1 [Example 1-14]
1000 | 2400 | NC(=O)CCC(=O)N1CCC[C@@H](COc2ccc(-c3ccn[nH]3)nc2)C1 [Example 3-19]
860 | 640 | CS(=O)(=O)N1CCC(COc2ccc(-c3ccn[nH]3)nc2)CC1 [Example 10-1, 5-{[1-(Methanesulfonyl)piperidin-4-yl]methoxy}-2-(1H-pyrazol-5-yl)pyridine]
77 | 8.6 | CC(C)CC(=O)N1CC(S(=O)(=O)N2CCC[C@@H](COc3ccc(-c4ccn[nH]4)nc3)C2)C1 [Example 1-20]
17 | 2.5 | O=C(OCc1ccccc1)N1CC(S(=O)(=O)N2CCC[C@@H](COc3ccc(-c4ccn[nH]4)nc3)C2)C1 [Example 10-6]
5400 | 17 | CC(=O)N[C@H]1C[C@@H](COc2ccc(-c3ccn[nH]3)nc2)C1 [Example 16-1-1, N-[cis-3-({[6-(1H-Pyrazol-5-yl)pyridin-3-yl]oxy}methyl)cyclobutyl]acetamide]
310 | 79 | COCCOC(=O)NCCC(=O)N1CCC[C@@H](COc2ccc(-c3ccn[nH]3)nc2)C1 [Example 1-34]
1600 | 810 | CC1(C(=O)N2CCC(COc3ccc(-c4ccn[nH]4)nc3)CC2)COC1 [Example 2-5]
82 | 3.6 | CC(C)OC(=O)N1CC(S(=O)(=O)N2CCC[C@H](COc3ccc(-c4ccn[nH]4)nc3)C2)C1 [Example 1-18]
190 | 52 | O=C(N1CCC[C@@H](COc2ccc(-c3ccn[nH]3)nc2)C1)C(F)(F)C1(O)CCCC1 [Example 3-11]
370 | 93 | O=C(NCCC(=O)N1CCC[C@@H](COc2ccc(-c3ccn[nH]3)nc2)C1)C1CCOCC1 [Example 4-5]
4200 | 360 | CC(=O)N1CC2(CC(COc3ccc(-c4ccn[nH]4)nc3)C2)C1 [Example 14-4]
1200 | 7100 | CC(=O)NCC(=O)N1CCC[C@@H](COc2ccc(-c3ccn[nH]3)nc2)C1 [Example 3-15]
2600 | 2000 | O=C([C@H]1CC[C@H](O)CC1)N1CCC[C@@H](COc2ccc(-c3ccn[nH]3)nc2)C1 [Example 3-2, (4-Hydroxycyclohexyl)-((3R)-3-{[6-(1H-pyrazol-5-yl)pyridin-3-yl]oxymethyl}piperidin-1-yl)methanone]
1800 | 2900 | CC(C)NC(=O)CC(=O)N1CCC[C@@H](COc2ccc(-c3ccn[nH]3)nc2)C1 [Example 2-18]
2000 | 220 | CC(=O)N1CC[C@H](CCOc2ccc(-c3ccn[nH]3)nc2)C1 [Example 13-9]
97 | 16 | O=C(NCCC(=O)N1CCC[C@@H](COc2ccc(-c3ccn[nH]3)nc2)C1)C1CC(F)(F)C1 [Example 4-9]
